One data set has as its system venous thrombosis. Kind of data set: Venous thrombosis test in the rat (Wessler venous stasis under hypercoagulation with factor Xa), oral administration. The class given is in vivo. As to conditions: Wistar male rats. How it is done:
The antithrombotic activity of the compounds according to the invention was studied in vivo in the rat by means of a test that reproduces a venous thrombosis. The venous thrombosis was induced according to the protocol described in Thromb. Haemost., 1992, 67(1), 176-179. The oral activity was studied according to the following operating protocol: The experiments are performed on non-fasted Wistar male rats weighing 250 to 280 g, divided into groups of 10 animals each. The test products are administered orally (tubage) dissolved or suspended in a solution of methyl cellulose (0.5% in water). […] To induce this thrombosis, a venous stasis is created under hypercoagulation according to the technique described by WESSLER (J. Applied Physiol., 1959, 943-946), the hypercoagulating agent used being a solution of activated factor X (Xa) having a concentration of 7.5 nKat/kg, supplied by Biogenic (Montpellier). The venous stasis is effected exactly 10 seconds after injection of the hypercoagulating agent. The activity of the test compounds was checked at different doses after they had been administered.

Setting [1] is: Rattus norvegicus, dose 6 mg/kg, thrombosis induced 2 h after administration, read-out: Oral activity: Activity (percentage inhibition of thrombus formation).
[2] abbreviates: dose 6 mg/kg, thrombosis induced 2 h after administration.

Molecules are shown by their SMILES.

For orientation: melting point means the temperature of the solid-liquid transition.

Take `CC(=O)c1ccc(O[C@@H]2SC[C@@H](O)[C@H](O)[C@H]2O)cn1` [Example 2, 6-acetyl-3-pyridinyl 5-thio-β-D-xylopyranoside]: in the data set with venous thrombosis (setting [1]), the inhibition in vivo at 6 mg/kg was determined as 63%. `CC(=O)O[C@@H]1[C@@H](OC(C)=O)[C@H](OC(C)=O)CS[C@H]1Oc1cncc(-c2ccc(C#N)cc2)c1` [Example 15, [5-(4-cyanophenyl)-3-pyridinyl]2,3,4-tri-O-acetyl-5-thio-β-D-xylopyranoside]: the “Oral activity: Activity (percentage inhibition of thrombus formation)” value with venous thrombosis (dose 8.2 mg/kg, thrombosis induced 2 h after administration) came to 84%.

The compound `CC(=O)c1ncccc1O[C@@H]1SC[C@@H](O)[C@H](O)[C@H]1O` [Example 4, 2-acetyl-3-pyridinyl 5-thio-β-D-xylopyranoside] came in with a melting point of 123 °C. In the data set on venous thrombosis (setting [1]), the inhibition in vivo at 6 mg/kg was 96%. `CC(=O)O[C@@H]1[C@@H](OC(C)=O)[C@H](OC(C)=O)CS[C@H]1Oc1cccnc1C(C)=O` [Example 3, 2-acetyl-3-pyridinyl 2,3,4-tri-O-acetyl-5-thio-β-D-xylopyranoside]: the inhibition in vivo at 8.6 mg/kg in the data set with venous thrombosis (Rattus norvegicus, dose 8.6 mg/kg, thrombosis induced 2 h after administration, read-out: Oral activity: Activity (percentage inhibition of thrombus formation)) came out at 92%. On to `O[C@@H]1[C@@H](O)[C@H](Oc2cncc(-c3ccccc3F)c2)SC[C@H]1O` [Example 126, 5-(2-fluorophenyl)-3-pyridinyl 5-thio-β-D-xylopyranoside], for which, in the data set on venous thrombosis (setting [1]), the inhibition in vivo at 6 mg/kg was determined as 91%.

With `N#Cc1ccc(-c2ncccc2O[C@@H]2SC[C@@H](O)[C@H](O)[C@H]2O)cc1` [Example 12, [2-(4-cyanophenyl)-3-pyridinyl]5-thio-β-D-xylopyranoside], in the data set on venous thrombosis (setting [2]), the “Oral activity: Activity (percentage inhibition of thrombus formation)” value is 14%.

As for `O[C@@H]1[C@@H](O)[C@H](Oc2cncc(-c3ccc(F)cc3Cl)c2)SC[C@H]1O` [Example 89, 5-(2-chloro-4-fluorophenyl)-3-pyridinyl 5-thio-β-D-xylopyranoside], the melting point is 208 to 211 °C. For the same compound, in the data set with venous thrombosis (setting [1]), the inhibition in vivo at 6 mg/kg stood at 100%.

In the case of `O=C(c1ccc(C(F)(F)F)cc1)c1ccc(O[C@@H]2SC[C@@H](O)[C@H](O)[C@H]2O)cn1` [Example 8, [6-[4-(trifluoromethyl)benzoyl]-3-pyridinyl]5-thio-β-D-xylopyranoside], the “Oral activity: Activity (percentage inhibition of thrombus formation)” value in the data set on venous thrombosis (setting [2]) is given as 46%.

Consider `Cc1ccc(-c2ccc(O[C@@H]3SC[C@@H](O)[C@H](O)[C@H]3O)cn2)cc1` [Example 99, 6-(4-methylphenyl)-3-pyridinyl 5-thio-β-D-xylopyranoside], for which the melting point was 191 °C. For the same compound, the inhibition in vivo at 6 mg/kg in the data set on venous thrombosis (setting [1]) was 72%.

`OCc1ccc(-c2ccc(O[C@@H]3SC[C@@H](O)[C@H](O)[C@H]3O)cn2)cc1` [Example 95, 6-[4-(hydroxymethyl)phenyl]-3-pyridinyl 5-thio-β-D-xylopyranoside]: the melting point came out at 215 °C. `O[C@@H]1[C@@H](O)[C@H](Oc2ccc(-c3ccc(OC(F)(F)F)cc3)nc2)SC[C@H]1O` [Example 125, 6-[4-(trifluoromethoxy)phenyl]-3-pyridinyl 5-thio-β-D-xylopyranoside] gave a melting point of 184 to 186 °C. As to `N#Cc1ccc(C(=O)c2ncccc2O[C@@H]2SC[C@@H](O)[C@H](O)[C@H]2O)cc1` [Example 6, [2-(4-cyanobenzoyl)-3-pyridinyl]5-thio-β-D-xylopyranoside], the “Oral activity: Activity (percentage inhibition of thrombus formation)” value came out at 61% with venous thrombosis (setting [2]) and 26% with venous thrombosis (dose 6 mg/kg, thrombosis induced 8 h after administration).

With `COc1ccc(-c2cncc(O[C@@H]3SC[C@@H](O)[C@H](O)[C@H]3O)c2)cc1F` [Example 103, 5-(3-fluoro-4-methoxyphenyl)-3-pyridinyl 5-thio-β-D-xylopyranoside], the melting point turned out to be 200 °C. The inhibition in vivo at 6 mg/kg in the data set on venous thrombosis (setting [1]) is 100%. The compound `Cc1ccc(-c2cncc(O[C@@H]3SC[C@@H](O)[C@H](O)[C@H]3O)c2)c(Cl)c1` [Example 111, 5-(2-chloro-4-methylphenyl)-3-pyridinyl 5-thio-β-D-xylopyranoside] yielded a melting point of 207 °C. Same read-out and setting: in the case of `COc1ccc(-c2cncc(O[C@@H]3SC[C@@H](O)[C@H](O)[C@H]3O)c2)c(Cl)c1` [Example 113, 5-(2-chloro-4-methoxyphenyl)-3-pyridinyl 5-thio-β-D-xylopyranoside] it was 218 °C. In turn, `Cc1cc(-c2cncc(O[C@@H]3SC[C@@H](O)[C@H](O)[C@H]3O)c2)ccc1F` [Example 59, 5-(4-fluoro-3-methylphenyl)-3-pyridinyl 5-thio-β-D-xylopyranoside] registered a melting point of 197 °C. The inhibition in vivo at 6 mg/kg in the data set on venous thrombosis (setting [1]) was 82%.

`COc1ccc(-c2cncc(O[C@@H]3SC[C@@H](O)[C@H](O)[C@H]3O)c2)cc1Cl` [Example 65, 5-(3-chloro-4-methoxyphenyl)-3-pyridinyl 5-thio-β-D-xylopyranoside] displayed a melting point of 165 °C. On the same count and under the same terms, in the case of `Cc1cc(F)ccc1-c1cc(O[C@@H]2SC[C@@H](O)[C@H](O)[C@H]2O)ccn1` [Example 162, 2-(4-fluoro-2-methylphenyl)-4-pyridinyl 5-thio-β-D-xylopyranoside] it was 147 °C; in that of `O[C@@H]1[C@@H](O)[C@H](Oc2cncc(-c3c(F)cc(F)cc3F)c2)SC[C@H]1O` [Example 144, 5-(2,4,6-trifluorophenyl)-3-pyridinyl 5-thio-β-D-xylopyranoside], 228 °C; in that of `N#Cc1cc(-c2cncc(O[C@@H]3SC[C@@H](O)[C@H](O)[C@H]3O)c2)ccc1F` [Example 63, 5-(3-cyano-4-fluorophenyl)-3-pyridinyl 5-thio-β-D-xylopyranoside], 197 °C. `CC(=O)c1cccc(-c2ncccc2O[C@@H]2SC[C@@H](O)[C@H](O)[C@H]2O)c1` [Example 128, 2-(3-acetylphenyl)-3-pyridinyl 5-thio-β-D-xylopyranoside] returned a melting point of 128 to 133 °C. For `O[C@@H]1[C@@H](O)[C@H](Oc2cncc(-c3ccc(F)c(Cl)c3)c2)SC[C@H]1O` [Example 131, 5-(3-chloro-4-fluorophenyl)-3-pyridinyl 5-thio-β-D-xylopyranoside], the inhibition in vivo at 6 mg/kg in the data set on venous thrombosis (setting [1]) was 80%.

`O[C@@H]1[C@@H](O)[C@H](Oc2cccnc2-c2ccc(OC(F)(F)F)cc2)SC[C@H]1O` [Example 127, 2-[4-(trifluoromethoxy)phenyl]-3-pyridinyl 5-thio-β-D-xylopyranoside] displayed a melting point of 114 to 119 °C.

As for `O=S(=O)(c1ccc(F)cc1)c1cncc(O[C@@H]2SC[C@@H](O)[C@H](O)[C@H]2O)c1` [Example 142, 5-[(4-fluorophenyl)sulfonyl]-3-pyridinyl 5-thio-β-D-xylopyranoside], the melting point lay in the range of 93 to 96 °C. With `COc1cc(F)c(-c2cncc(O[C@@H]3SC[C@@H](O)[C@H](O)[C@H]3O)c2)c(F)c1` [Example 81, 5-(2,6-difluoro-4-methoxyphenyl)-3-pyridinyl 5-thio-β-D-xylopyranoside], the melting point came out at 200 °C. The compound `Cc1cc(-c2cncc(O[C@@H]3SC[C@@H](O)[C@H](O)[C@H]3O)c2)ccc1C#N` [Example 150, 5-(4-cyano-3-methylphenyl)-3-pyridinyl 5-thio-β-D-xylopyranoside] had a melting point of 198 to 200 °C. On the same count and under the same terms, in the case of `COc1cccc(-c2cncc(O[C@@H]3SC[C@@H](O)[C@H](O)[C@H]3O)c2)c1` [Example 67, 5-(3-methoxyphenyl)-3-pyridinyl 5-thio-β-D-xylopyranoside] it was 200 °C. In the case of `O[C@@H]1[C@@H](O)[C@H](Oc2cncc(-c3ccccc3)c2)SC[C@H]1O` [Example 14, 5-phenyl-3-pyridinyl 5-thio-β-D-xylopyranoside], the inhibition in vivo at 6 mg/kg in the data set on venous thrombosis (setting [1]) was determined as 50%. In turn, `N#Cc1ccc(-c2ccncc2O[C@@H]2SC[C@@H](O)[C@H](O)[C@H]2O)cc1` [Example 28, 4-(4-cyanophenyl)-3-pyridinyl 5-thio-β-D-xylopyranoside] yielded a melting point of 238 °C.

Take `O[C@@H]1[C@@H](O)[C@H](Oc2cnccc2-c2ccc(F)cc2)SC[C@H]1O` [Example 57, 4-(4-fluorophenyl)-3-pyridinyl 5-thio-β-D-xylopyranoside]: the melting point stood at 219 °C. On to `COc1ccc(-c2ccncc2O[C@@H]2SC[C@@H](O)[C@H](O)[C@H]2O)cc1` [Example 101, 4-(4-methoxyphenyl)-3-pyridinyl 5-thio-β-D-xylopyranoside], for which the melting point stood at 228 °C. In addition, the inhibition in vivo at 6 mg/kg in the data set with venous thrombosis (setting [1]) came to 97%. On to `CC(=O)O[C@@H]1[C@@H](OC(C)=O)[C@H](OC(C)=O)CS[C@H]1Oc1cncc(S(C)(=O)=O)c1` [Example 114, 5-methylsulfonyl-3-pyridinyl 2,3,4-tri-O-acetyl-5-thio-β-D-xylopyranoside], for which the melting point turned out to be 193 °C. As to `O[C@@H]1[C@@H](O)[C@H](Oc2cncc(-c3cccc(F)c3)c2)SC[C@H]1O` [Example 123, 5-(3-fluorophenyl)-3-pyridinyl 5-thio-β-D-xylopyranoside], the inhibition in vivo at 6 mg/kg with venous thrombosis (setting [1]) was 97%. Regarding `N#Cc1cccc(-c2cncc(O[C@@H]3SC[C@@H](O)[C@H](O)[C@H]3O)c2)c1` [Example 55, 5-(3-cyanophenyl)-3-pyridinyl 5-thio-β-D-xylopyranoside], the melting point was 172 °C.

Values taken from patent US8148407B2, “Compounds derived from 5-thioxylose and their use in therapeutics” (Laboratories Fournier S.A., priority 2005, dated 2012).
